Source: US20080072494A1, “Micronutrient elicitor for treating nematodes in field crops” (priority 2006, published 2008)

Assays:
β-1,3-glucanase = β-1,3-glucanase elicitation in germinating mung beans after seed treatment (laminarin substrate); assay type: in vivo; conditions: mung bean seeds, 0.5, 0.05 and 0.005 mg/seed; higher doses gave lower activities
Description: Enzyme activity measurements relate to the level of a given enzyme protein in the plant tissue. As an example of enhanced enzyme activity, β-1,3-glucanase was measured. The enzyme, β-1,3-glucanase, was assayed using laminarin (a soluble β-1,3-glucan) as substrate. Crude homogenates of the seedlings from treated seeds yielded the data in FIG. 1. Increased β-1,3-glucanase activity compared to controls (without seed treatment) was obtained in the micronutrient of the present invention treatments ten days following germination. Elicitation of mung beans seeds that were treated with the micronutrient of the present invention were compared to those treated with two types of elicitors. First, various concentrations of purified colloidal chitin/chitosan were used. […] Secondly, lower concentrations of the chitin oligosaccharide containing six glycan moieties, N-acetylchitohexaose were studied. The importance of the chitin oligosaccharide is that short chains of chitin have been found optimal in elicitation of many types of plants. […] Comparisons similar to those with chitin/chitosan could be made between the performance of 1 mg/seed micronutrient of the present invention and lower concentrations of the more optimal oligosaccharide.

[1] = assay type: physicochemical
Text: Chitin/chitosan occurs naturally in a range from 100% chitin to 100% chitosan as a mixed polymer. […] Below is data showing that the micronutrient of the present invention outperforms chitin/chitosan as an elicitor of self-protecting enzymes.

dose response relationship of β-1,3-glucanase specific activity (β-1,3-glucanase) | water solubility [1] | Molecule
negative |  | CC(=O)N[C@H]1[C@H](O[C@H]2[C@H](O)[C@@H](NC(C)=O)[C@H](O[C@H]3[C@H](O)[C@@H](NC(C)=O)C(O)O[C@@H]3CO)O[C@@H]2CO)O[C@H](CO)[C@@H](O[C@@H]2O[C@H](CO)[C@@H](O[C@@H]3O[C@H](CO)[C@@H](O[C@@H]4O[C@H](CO)[C@@H](O)[C@H](O)[C@H]4NC(C)=O)[C@H](O)[C@H]3NC(C)=O)[C@H](O)[C@H]2NC(C)=O)[C@@H]1O (some centres unmarked) [N-acetylchitohexaose]
 | not water soluble | chitin/chitosan
